Converted amounts (≈) assume the structure as drawn.

Consider one compound from ChEMBL document CHEMBL1671852, “In vitro activities of linezolid against clinical isolates of Mycobacterium tuberculosis complex isolated in Taiwan over 10 years” (2008).

This test has as its system Mycobacterium tuberculosis. Description: Antibacterial activity against Mycobacterium tuberculosis H37Rv by agar proportion method. The test is classed as functional.

For `CC(=O)NC[C@H]1CN(c2ccc(N3CCOCC3)c(F)c2)C(=O)O1` [LINEZOLID], the minimal inhibitory concentration (MIC) (as a rule, the least concentration at which growth counts as inhibited) was determined as 0.5 µg/mL (≈ 1.48 µM).
